The target in assay [1] is Replicase polyprotein 1ab (Severe acute respiratory syndrome coronavirus, UniProt P0C6X7). As to the kind of experiment: Enzyme Inhibition Assay. As to conditions: pH 6.5; 25 °C. Here is the method:
(§1) Peptidomimetic inhibitors against CVB3 3Cpro and SARS-CoV 3CLpro. The inhibition constant of SARS 3CLpro was analyzed with reverse-phase HPLC using a C-18 column.

Assay [2] addresses Genome polyprotein (Coxsackievirus B3 (strain Nancy), UniProt P03313). As to the kind of experiment: Enzyme Inhibition Assay. As to conditions: pH 6.5; 25 °C. How it is done: as §1

Each structure is given as a SMILES string.

Genome polyprotein, sequence (P03313 1541-1723 limits assumed): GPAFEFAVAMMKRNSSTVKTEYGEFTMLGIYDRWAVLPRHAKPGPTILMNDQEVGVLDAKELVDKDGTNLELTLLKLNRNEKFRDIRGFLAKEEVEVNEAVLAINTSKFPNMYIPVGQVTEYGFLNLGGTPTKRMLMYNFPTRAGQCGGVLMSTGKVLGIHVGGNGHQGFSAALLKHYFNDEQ

In the case of `CCOC(=O)/C=C/[C@H](C[C@@H]1CCNC1=O)NC(=O)[C@H](CC(C)C)NC(=O)[C@@H](NC(=O)OCc1ccccc1)C(C)OC(C)(C)C` (stereo partly drawn) [ethyl (2E,4S)-4-[(2S)-2-[(2S,3S)-2-{[(benzyloxy)carbonyl]amino}-3-(tert-butoxy)butanamido]-4-methylpentanamido]-5-[(3S)-2-oxopyrrolidin-3-yl]pent-2-enoate], the values for the Ki in assay [1] and in assay [2] were 58 nM and 1500 nM, respectively. With `CC(=O)CC=C(C[C@@H]1CCNC1=O)NC(=O)[C@H](CC(C)C)NC(=O)[C@H](CNC(=O)C(C)(C)C)NC(=O)OCc1ccccc1` [TG-0204998], the Ki – broadly, a dissociation constant, usually derived from enzyme kinetics or from competition with a known ligand – in assay [2] was 800 nM. The same measure, in the same setting: the same measure for `CC(C)C[C@H](NC(=O)[C@@H](NC(=O)OCc1ccccc1)C(C)OC(C)(C)C)C(=O)NC(=CCC(=O)C1CC1)C[C@@H]1CCNC1=O` (stereo partly specified) [TG-0205486]: 400 nM. Take `C[C@H](OC(C)(C)C)[C@H](NC(=O)OCc1ccccc1)C(=O)N[C@@H](CC1CCCCC1)C(=O)N[C@H](C=O)C[C@@H]1CCNC1=O` [benzyl N-[(1S,2S)-2-(tert-butoxy)-1-{[(1S)-2-cyclohexyl-1-{[(2S)-1-oxo-3-[(3S)-2-oxopyrrolidin-3-yl]propan-2-yl]carbamoyl}ethyl]carbamoyl}propyl]carbamate]: the Ki was 54 nM in assay [1] and 2500 nM in assay [2].

Values taken from BindingDB's records for doi:10.1074/jbc.M807947200 (National Yang-Ming University, 2009).
